Measurements published in patent publication US20200390899A1, “AMINOBENZAZEPINE COMPOUNDS, IMMUNOCONJUGATES, AND USES THEREOF” (BOLT BIOTHERAPEUTICS, INC., priority 2019, published 2020).
Where two headings read alike, the source gives them in different places.

Tests used:
human TLR7 = biological target: T1, human TLR7 (Homo sapiens, UniProt Q9NYK1); experiment: HEK293 NFKB reporter assay, human TLR7; type: cell-based; conditions: HEK293 reporter cells expressing human TLR7, read-out: HEK293 hTLR7 EC50
T1 construct: host or cells: HEK293 reporter cells
T1 sequence (Q9NYK1 27-1049): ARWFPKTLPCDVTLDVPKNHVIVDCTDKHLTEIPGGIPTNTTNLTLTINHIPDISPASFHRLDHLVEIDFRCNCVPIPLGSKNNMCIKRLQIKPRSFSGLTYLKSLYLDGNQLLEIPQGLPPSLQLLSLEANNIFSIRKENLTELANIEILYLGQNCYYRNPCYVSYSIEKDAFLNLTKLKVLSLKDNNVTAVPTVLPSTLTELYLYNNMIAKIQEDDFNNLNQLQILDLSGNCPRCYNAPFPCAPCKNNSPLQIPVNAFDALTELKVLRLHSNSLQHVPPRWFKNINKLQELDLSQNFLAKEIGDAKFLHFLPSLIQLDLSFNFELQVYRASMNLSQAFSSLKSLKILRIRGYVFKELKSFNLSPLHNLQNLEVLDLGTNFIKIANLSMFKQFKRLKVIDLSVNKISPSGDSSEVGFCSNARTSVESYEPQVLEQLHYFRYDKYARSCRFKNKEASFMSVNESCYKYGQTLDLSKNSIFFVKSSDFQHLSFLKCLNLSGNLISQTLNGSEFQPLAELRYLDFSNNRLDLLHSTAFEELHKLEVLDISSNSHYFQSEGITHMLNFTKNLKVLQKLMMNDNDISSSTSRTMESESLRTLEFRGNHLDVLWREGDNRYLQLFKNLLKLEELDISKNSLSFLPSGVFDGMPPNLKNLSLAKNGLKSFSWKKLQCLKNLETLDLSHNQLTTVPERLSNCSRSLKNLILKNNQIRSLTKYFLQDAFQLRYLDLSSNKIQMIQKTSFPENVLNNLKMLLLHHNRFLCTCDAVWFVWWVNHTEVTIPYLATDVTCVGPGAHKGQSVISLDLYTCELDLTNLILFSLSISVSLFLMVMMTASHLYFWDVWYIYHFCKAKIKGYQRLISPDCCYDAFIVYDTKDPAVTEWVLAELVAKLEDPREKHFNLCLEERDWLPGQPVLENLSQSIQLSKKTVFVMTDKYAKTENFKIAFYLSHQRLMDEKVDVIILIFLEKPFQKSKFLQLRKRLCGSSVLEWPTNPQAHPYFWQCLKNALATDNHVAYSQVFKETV
Experimental: (§1) Each compound was synthesized and purified by the methods in the Examples provided herein, characterized by mass spectrometry, and shown to have the mass indicated. Activity against HEK293 NFKB reporter cells expressing human TLR7 or human TLR8 was measured according to Example 68.
(§2) HEK293 reporter cells expressing human TLR7 or human TLR8 were purchased from Invivogen and vendor protocols were followed for cellular propagation and experimentation. Briefly, cells were grown to 80-85% confluence at 5% CO2 in DMEM supplemented with 10% FBS, Zeocin, and Blasticidin. Cells were then seeded in 96-well flat plates at 4×10^4cells/well with substrate containing HEK detection medium and immunostimulatory molecules. Activity was measured using a plate reader at 620-655 nm wavelength.

human TLR8 = biological target: T2, human TLR8 (Homo sapiens, UniProt Q9NR97); experiment: HEK293 NFKB reporter assay, human TLR8; type: cell-based; conditions: HEK293 reporter cells expressing human TLR8, read-out: HEK293 hTLR8 EC50
T2 construct: host or cells: HEK293 reporter cells
T2 sequence (Q9NR97 27-1041): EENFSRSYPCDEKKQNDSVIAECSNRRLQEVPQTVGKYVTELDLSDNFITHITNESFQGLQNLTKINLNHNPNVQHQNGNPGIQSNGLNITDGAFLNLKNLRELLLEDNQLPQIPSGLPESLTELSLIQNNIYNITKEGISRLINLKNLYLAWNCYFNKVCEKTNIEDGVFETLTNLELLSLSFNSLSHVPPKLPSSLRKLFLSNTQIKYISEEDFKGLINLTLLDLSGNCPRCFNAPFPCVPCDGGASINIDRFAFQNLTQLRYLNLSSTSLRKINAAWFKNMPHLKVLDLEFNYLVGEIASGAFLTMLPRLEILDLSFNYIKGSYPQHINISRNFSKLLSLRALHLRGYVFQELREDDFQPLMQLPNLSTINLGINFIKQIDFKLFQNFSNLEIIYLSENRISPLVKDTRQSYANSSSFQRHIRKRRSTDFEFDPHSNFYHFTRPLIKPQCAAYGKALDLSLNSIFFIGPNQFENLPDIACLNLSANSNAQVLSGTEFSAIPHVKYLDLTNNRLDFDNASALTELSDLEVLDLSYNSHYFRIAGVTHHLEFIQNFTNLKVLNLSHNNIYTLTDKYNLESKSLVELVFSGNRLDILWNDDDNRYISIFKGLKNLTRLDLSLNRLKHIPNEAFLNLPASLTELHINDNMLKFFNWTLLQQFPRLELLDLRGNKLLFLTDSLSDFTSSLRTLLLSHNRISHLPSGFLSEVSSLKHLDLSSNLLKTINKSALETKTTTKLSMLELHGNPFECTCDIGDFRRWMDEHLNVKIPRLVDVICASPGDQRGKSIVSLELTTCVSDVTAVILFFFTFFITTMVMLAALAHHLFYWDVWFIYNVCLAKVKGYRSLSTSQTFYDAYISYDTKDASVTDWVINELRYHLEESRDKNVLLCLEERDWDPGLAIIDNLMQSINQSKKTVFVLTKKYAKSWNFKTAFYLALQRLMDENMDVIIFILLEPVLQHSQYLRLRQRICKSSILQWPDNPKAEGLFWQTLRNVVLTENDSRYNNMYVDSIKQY
Experimental: as §1, §2

An EC50 (human TLR7; Table 1b) greater than 9000 nM and an EC50 (human TLR8; Table 1b) of 341 nM were found for `CCCN(CCC(F)(F)F)C(=O)C1=Cc2ccc(-c3cccc(S(=O)(=O)N4CC(CO)C4)c3)cc2N=C(N)C1` [Bz-31, 2-amino-8-[3-[3-(hydroxymethyl)azetidin-1-yl]sulfonylphenyl]-N-propyl-N-(3,3,3-trifluoropropyl)-3H-1-benzazepine-4-carboxamide] in this work.
An EC50 (human TLR7; Table 1b) greater than 9000 nM and an EC50 (human TLR8; Table 1b) greater than 9000 nM were found for `CCCN(Cc1ccc(CN2CCNCC2)cc1)C(=O)C1=Cc2ccc(-c3cccc(S(=O)(=O)N4CC(CO)C4)c3)cc2N=C(N)C1` [Bz-32, 2-amino-8-[3-[3-(hydroxymethyl)azetidin-1-yl]sulfonylphenyl]-N-[[4-(piperazin-1-ylmethyl)phenyl]methyl]-N-propyl-3H-1-benzazepine-4-carboxamide] in this work.
An EC50 (human TLR7; Table 1b) of 1430 nM and an EC50 (human TLR8; Table 1b) of 1920 nM were found for `CCCN(CCCNC(=O)c1ccc(OCC)cc1)C(=O)C1=Cc2ccc(-c3cccc(S(=O)(=O)N4CC(CO)C4)c3)cc2N=C(N)C1` [Bz-33, 2-amino-N-(3-(4-ethoxybenzamido)propyl)-8-(3-((3-(hydroxymethyl)azetidin-1-yl)sulfonyl)phenyl)-N-propyl-3H-benzo[b]azepine-4-carboxamide] in this work.
An EC50 (human TLR7; Table 1b) greater than 9000 nM and an EC50 (human TLR8; Table 1b) of 1040 nM were found for `CCCN(CCCNC(=O)c1ccc(OCC)cc1)C(=O)C1=Cc2ccc(C(=O)Nc3ccccc3)cc2N=C(N)C1` [Bz-34, 2-amino-N^4-(3-(4-ethoxybenzamido)propyl)-N^8-phenyl-N^4-propyl-3H-benzo[b]azepine-4,8-dicarboxamide] in this work.
An EC50 (human TLR7; Table 1c) of 42 nM and an EC50 (human TLR8; Table 1c) of 728 nM were found for `CCCN(CCC)C(=O)C1=Cc2ccc(-c3cc(C(F)(F)F)cc(S(=O)(=O)N4CC(CN(C)C)C4)c3)cc2N=C(N)C1` [Bz-39] in this work.
An EC50 (human TLR7; Table 1c) of no less than 9000 nM and an EC50 (human TLR8; Table 1c) of 49 nM were found for `CCCN(OCC)C(=O)C1=Cc2ccc(-c3cccc(S(=O)(=O)N4CC(CO)C4)c3)cc2N=C(N)C1` [Bz-42] in this work.
An EC50 (human TLR7; Table 1c) of no less than 9000 nM and an EC50 (human TLR8; Table 1c) of 341 nM were found for `CCCN(CCC(F)(F)F)C(=O)C1=Cc2ccc(-c3cccc(S(=O)(=O)N4CC(CO)C4)c3)cc2N=C(N)C1` [Bz-47] in this work.
An EC50 (human TLR7; Table 1c) of no less than 9000 nM and an EC50 (human TLR8; Table 1c) of no less than 9000 nM were found for `CCCN(Cc1ccc(CN2CCNCC2)cc1)C(=O)C1=Cc2ccc(-c3cccc(S(=O)(=O)N4CC(CO)C4)c3)cc2N=C(N)C1` [Bz-49] in this work.
An EC50 (human TLR7; Table 1c) of 1430 nM and an EC50 (human TLR8; Table 1c) of 1920 nM were found for `CCCN(CCCNC(=O)c1ccc(OCC)cc1)C(=O)C1=Cc2ccc(-c3cccc(S(=O)(=O)N4CC(CO)C4)c3)cc2N=C(N)C1` [Bz-51] in this work.
An EC50 (human TLR7; Table 1c) of no less than 9000 nM and an EC50 (human TLR8; Table 1c) of 1040 nM were found for `CCCN(CCCNC(=O)c1ccc(OCC)cc1)C(=O)C1=Cc2ccc(C(=O)Nc3ccccc3)cc2N=C(N)C1` [Bz-55] in this work.
An EC50 (human TLR7; Table 1c) of 1270 nM and an EC50 (human TLR8; Table 1c) of 8 nM were found for `CCCN(OCC)C(=O)C1=Cc2ccc(-c3cccc(S(=O)(=O)N4CC(CN(C)C)C4)c3)cc2N=C(N)C1` [Bz-63] in this work.
An EC50 (human TLR7; Table 1c) of 4610 nM and an EC50 (human TLR8; Table 1c) of 26 nM were found for `CCON(CCC(F)(F)F)C(=O)C1=Cc2ccc(-c3cccc(S(=O)(=O)N4CC(CO)C4)c3)cc2N=C(N)C1` [Bz-66] in this work.
An EC50 (human TLR7; Table 1c) of 3930 nM and an EC50 (human TLR8; Table 1c) of 2050 nM were found for `CCCN(CCC)C(=O)C1=Cc2ccc(C#CCCCNC(=O)OC(C)(C)C)cc2N=C(N)C1` [Bz-67] in this work.
An EC50 (human TLR7; Table 1c) of 4600 nM and an EC50 (human TLR8; Table 1c) of 3070 nM were found for `CCCN(CCC)C(=O)C1=Cc2ccc(C#CCCCN)cc2N=C(N)C1` [Bz-68] in this work.
An EC50 (human TLR7; Table 1c) of 3210 nM and an EC50 (human TLR8; Table 1c) of 6670 nM were found for `CCCN(CCC)C(=O)C1=Cc2ccc(CCCCCNC(=O)OC(C)(C)C)cc2N=C(N)C1` [Bz-69] in this work.
An EC50 (human TLR7; Table 1c) of 4480 nM and an EC50 (human TLR8; Table 1c) of 120 nM were found for `CCCN(OCC(F)(F)F)C(=O)C1=Cc2ccc(-c3cccc(S(=O)(=O)N4CC(CO)C4)c3)cc2N=C(N)C1` [Bz-73] in this work.
An EC50 (human TLR7; Table 1c) of 969 nM and an EC50 (human TLR8; Table 1c) of 786 nM were found for `CCCN(CCc1ccc(OC)cc1)C(=O)C1=Cc2ccc(-c3cccc(S(=O)(=O)N4CC(CN(C)C)C4)c3)cc2N=C(N)C1` [Bz-76] in this work.
